Measured values: patent US7053120B2, “Use of carboxy compounds such as 2(4-acetoxyphenyl)2-chloro-N-methyl-ethylammonium chloride as anti-inflammatory agents” (priority 1999, dated 2006)
Where two headings read alike, the source gives them in different places.

Tests used:
[1] = tested on: NF-κB reporter p(IL6-κB)350hu.IL6P-luc+, GR dependence; format: cell-based, human; details: mock DNA versus pSVhGRα, 2000 IU/ml TNF
[2] = tested on: NF-κB DNA-binding activity (IL-6 NF-κB response element); details: L929sA cells, previously demonstrated; cited from earlier work
pNF-κB-Luc = experiment: TNF-activated pNF-κB-Luc (E1B TATA) in HEK293T cells; format: cell-based, human; details: 2000 IU/ml TNF
[3] = tested on: GRE-driven promoter (p(GRE)2-50-luc+); format: cell-based, mouse
[4] = tested on: NF-κB (p1168(AP-1mut)IL6P-luc+); format: cell-based, mouse; details: 2000 IU/ml TNF
[5] = tested on: E-selectin promoter (pE-selectin-Luc); format: cell-based, mouse; details: 2000 IU/ml TNF
[6] = tested on: AP-1 (p1168(κBmut)IL6P-luc+); format: cell-based, mouse; details: 60 nM STS
[7] = tested on: Gal4-p65 chimeric protein; experiment: Gal4-p65 transactivation of p(Gal)2-50hu.IL6P-luc+ in L929sA cells; format: cell-based, mouse
[8] = tested on: IL-6 promoter (p1168hu.IL6P-luc+); format: cell-based, mouse; details: added 2 h before 2000 IU/ml TNF, total 8 h
JNK p46 and p54 = experiment: MAPK activation assay (phospho-specific Western blot), JNK, L929sA cells; format: cell-based, mouse; details: 2000 IU/ml TNF 15 minutes
[9] = kept in solution (especially at pH5 and above); cited from earlier work
[10] = tested on: endogenous murine IL-6 production; experiment: Murine IL-6 ELISA on supernatant of TNF-induced L929sA cells; format: cell-based, mouse; details: 1 μM and 10 μM, 2000 IU/ml TNF, 8 h
[11] = Stability of the compound on storage and in solution; format: physicochemical; details: solid, storage
Text: The invention further relates to compositions, preferably pharmaceutical compositions, comprising as an active ingredient at least one of the compounds as defined in formula (I) together with (pharmaceutically) acceptable excipients. […] The preferred compound exerting this activity is 2(4-acetoxyphenyl)-2-chloro-N-methyl-ethylammonium chloride and has a molecular weight of 264.14.

[12] = tested on: NF-κB (p(IL6κB)350hu.IL6P-luc+); format: cell-based, mouse; details: 0.1, 1 or 10 μM CpdA compared with 1 μM DEX, 2000 IU/ml TNF
oestrus cycle = details: rats; cited from earlier work
[13] = tested on: NF-κB DNA-binding activity (IL-6 NF-κB response element); experiment: EMSA of NF-κB DNA-binding activity in L929sA cells; format: cell-based, mouse; details: all concentrations indicated, added 2 h before TNF (2000 IU/ml), total 4 h

C[C@@H]1C[C@H]2[C@@H]3CCC4=CC(=O)C=C[C@]4(C)[C@@]3(F)[C@@H](O)C[C@]2(C)[C@@]1(O)C(=O)CO [DEX, Dexamethasone, reference compound]
repression of TNF-activated p(IL6-κB)350hu.IL6P-luc+ ([1]; 1 μM): only when GR is present | effect on NF-κB DNA-binding capacities [2]: without affecting the DNA-binding capacities of NF-κB | repression of TNF-activated pNF-κB-Luc (pNF-κB-Luc; 1 μM): not able to mediate repression of pNF-κB-Luc | transactivation of p(GRE)2-50-luc+ (induction factor) ([3]; 1 μM, 8 h): at least 8 fold | inhibition of TNF-induced NF-κB-mediated transactivation of p1168(AP-1mut)IL6P-luc+ ([4]; 1 μM): efficiently inhibit this NF-κB-mediated transactivation | inhibition of TNF-induced pE-selectin-luc+ ([5]; 1 μM): to background levels | inhibition of STS-induced AP-1-mediated transactivation ([6]; 1 μM): efficiently inhibits the AP-1-mediated transactivation | inhibition of the activity of Gal4p65 ([7]; 1 μM): able to halfmaximally inhibit the activity of Gal4p65 | inhibition of TNF induction of p1168hu.IL6P-luc+ (relative luciferase induction factor) ([8]; 1 μM): efficiently be inhibited | effect on amount of phosphorylated (activated) JNK (JNK p46 and p54; 1 μM for 2 h): able to inhibit the amount of phosphorylated JNK

CNCC(Cl)c1ccc(OC(C)=O)cc1.Cl (stereo not shown) [CpdA, 2-(4-acetoxyphenyl)-2-chloro-N-methyl-ethylammonium chloride]
repression of TNF-activated p(IL6-κB)350hu.IL6P-luc+ ([1]; 10 μM): only when GR is present | stability in solution [9]: starts to cyclise to the corresponding aziridine | lowering of TNF-induced IL-6 protein levels [10]: able to efficiently lower these TNF-induced levels | repression of TNF-activated pNF-κB-Luc (pNF-κB-Luc; 10 μM): not able to mediate repression of pNF-κB-Luc | transactivation of p(GRE)2-50-luc+ ([3]; 0.1 and 10 μM, 8 h): lack of activity | effect on DEX-induced p(GRE)2-50-luc+ transactivation ([3]; CpdA together with 1 μM DEX): competition for GR molecules present in the cell | hygroscopicity and light sensitivity [11]: hygroscopic and sensitive to light | inhibition of TNF-activated p(IL6κB)350hu.IL6Pluc+ [12]: inhibits, to a similar extent as DEX | inhibition of TNF-induced NF-κB-mediated transactivation of p1168(AP-1mut)IL6P-luc+ ([4]; 1 μM and 10 μM): capable of significantly inhibiting the TNF-induced promoter activity | effect on oestrus cycle (oestrus cycle): disrupts the oestrus cycle of rats | inhibition of TNF-induced pE-selectin-luc+ ([5]; 1 μM): also effective, though to a lesser extent | inhibition of TNF-induced pE-selectin-luc+ ([5]; 10 μM): inhibits the TNF-activated reporter to the same extent as 1 μM DEX, i.e. to background levels | inhibition of STS-induced AP-1-mediated transactivation ([6]; 0.1, 1 and 10 μM): capable of inhibiting the STS-induced transactivation | inhibition of the activity of Gal4p65 ([7]; 10 μM): able to halfmaximally inhibit the activity of Gal4p65 | effect on NF-κB DNA-binding activity [13]: no change of NF-κB DNA-binding activity is observed | inhibition of TNF induction of p1168hu.IL6P-luc+ (relative luciferase induction factor) ([8]; 0.1 μM): downmodulatory effect | inhibition of TNF induction of p1168hu.IL6P-luc+ (relative luciferase induction factor) ([8]; 1 μM): lowers the relative luciferase induction factor to almost the same extent as 1 μM DEX | effect on amount of phosphorylated (activated) JNK (JNK p46 and p54; 1 or 10 μM for 2 h): does not affect the amount of activated JNK p46 and p54
